In patent US10251892B2, “Bicyclic heterocycles as FGFR4 inhibitors” (Incyte Corporation, priority 2015, dated 2019):

Target: FGFR3 enzyme (Homo sapiens (Human), UniProt P22607)
Assay: FGFR Enzymatic Assay (peptide phosphorylation, FRET), FGFR3
Format: biochemical
Settings: IC50 ratio showing FGFR3 selectivity; pre-incubated for 4 hours
Experimental: The inhibitor potency of the exemplified compounds was measured in an enzyme assay that measures peptide phosphorylation using FRET measurements to detect product formation. Inhibitors were serially diluted in DMSO and a volume of 0.5 μL was transferred to the wells of a 384-well plate.
GraphPad prism3 was used to analyze the data.

FGFR3 enzyme, sequence (P22607 23-806): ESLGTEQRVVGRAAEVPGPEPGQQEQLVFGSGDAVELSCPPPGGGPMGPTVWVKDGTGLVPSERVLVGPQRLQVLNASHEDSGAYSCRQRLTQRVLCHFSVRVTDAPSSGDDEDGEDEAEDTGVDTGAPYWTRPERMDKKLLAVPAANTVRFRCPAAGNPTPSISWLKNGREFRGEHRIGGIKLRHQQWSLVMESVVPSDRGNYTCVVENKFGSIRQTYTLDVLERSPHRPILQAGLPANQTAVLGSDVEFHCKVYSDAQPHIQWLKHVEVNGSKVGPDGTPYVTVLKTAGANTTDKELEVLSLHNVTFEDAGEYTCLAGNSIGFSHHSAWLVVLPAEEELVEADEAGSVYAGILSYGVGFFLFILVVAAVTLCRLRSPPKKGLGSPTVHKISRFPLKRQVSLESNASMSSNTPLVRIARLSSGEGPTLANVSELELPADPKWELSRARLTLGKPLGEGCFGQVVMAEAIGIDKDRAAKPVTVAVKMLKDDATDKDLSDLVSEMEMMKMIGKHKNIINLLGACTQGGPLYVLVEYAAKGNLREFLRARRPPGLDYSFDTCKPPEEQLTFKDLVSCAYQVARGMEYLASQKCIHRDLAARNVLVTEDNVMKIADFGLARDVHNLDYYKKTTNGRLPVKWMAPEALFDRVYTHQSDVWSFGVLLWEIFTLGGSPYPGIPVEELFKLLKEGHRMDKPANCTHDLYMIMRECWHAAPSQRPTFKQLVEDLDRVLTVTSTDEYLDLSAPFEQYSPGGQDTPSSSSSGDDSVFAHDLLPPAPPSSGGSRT

| SMILES | FGFR1/FGFR3 | FGFR4/FGFR3 |
| --- | --- | --- |
| CCN1C(=O)N(c2c(F)c(OC)cc(OC)c2F)Cc2cnc(-c3ccccc3)cc21 [Example 22, 3-(2,6-difluoro-3,5-dimethoxyphenyl)-1-ethyl-7-phenyl-3,4-dihydropyrido[4,3-d]pyrimidin-2(1H)-one] | >5 | – |
| COc1cc(OC)c(F)c(N2Cc3cnc(-c4cn(C)nc4C)cc3N(c3ccncn3)C2=O)c1F [Example 45, 3-(2,6-difluoro-3,5-dimethoxyphenyl)-7-(1,3-dimethyl-1H-pyrazol-4-yl)-1-pyrimidin-4-yl-3,4-dihydropyrido[4,3-d]pyrimidin-2(1H)-one] | >10 | >10 |
| COc1cc(OC)c(F)c(N2Cc3cnc(-c4cn(C)nc4C)cc3N(c3ccc(F)cc3)C2=O)c1F [Example 40, 3-(2,6-difluoro-3,5-dimethoxyphenyl)-7-(1,3-dimethyl-1H-pyrazol-4-yl)-1-(4-fluorophenyl)-3,4-dihydropyrido[4,3-d]pyrimidin-2(1H)-one] | >10 | >10 |
| COc1cc(OC)c(F)c(N2Cc3cnc(-c4cn(C)nc4C)cc3N(c3ccc(-n4cccn4)cc3)C2=O)c1F [Example 77, 1-(4-(1H-pyrazol-1-yl)phenyl)-3-(2,6-difluoro-3,5-dimethoxyphenyl)-7-(1,3-dimethyl-1H-pyrazol-4-yl)-3,4-dihydropyrido[4,3-d]pyrimidin-2(1H)-one] | >5 | >10 |
| COc1cc(OC)c(F)c(N2Cc3cnc(-c4cn(CC(=O)N5CCOCC5)nc4C)cc3C3(CC3)C2=O)c1F [Example 159, 2′-(2,6-difluoro-3,5-dimethoxyphenyl)-6′-(3-methyl-1-(2-morpholino-2-oxoethyl)-1H-pyrazol-4-yl)-1′H-spiro[cyclopropane-1,4′-[2,7]naphthyridin]-3′(2′H)-one] | >5 | >3 |
| COc1cc(OC)c(F)c(N2Cc3cnc(-c4cn(C)nc4C)cc3N(Cc3cnccn3)C2=O)c1F [Example 85, 3-(2,6-difluoro-3,5-dimethoxyphenyl)-7-(1,3-dimethyl-1H-pyrazol-4-yl)-1-(pyrazin-2-ylmethyl)-3,4-dihydropyrido[4,3-d]pyrimidin-2(1H)-one] | >5 | >10 |
| CNC(=O)c1ccc(CN2C(=O)N(c3c(F)c(OC)cc(OC)c3F)Cc3cnc(-c4cn(C)nc4C)cc32)cc1 [Example 62, 4-((3-(2,6-difluoro-3,5-dimethoxyphenyl)-7-(1,3-dimethyl-1H-pyrazol-4-yl)-2-oxo-3,4-dihydropyrido[4,3-d]pyrimidin-1(2H)-yl)methyl)-N-methylbenzamide] | >10 | >5 |
| CCc1cc(CN2C(=O)N(c3c(F)c(OC)cc(OC)c3F)Cc3cnc(-c4cn(C)nc4C)cc32)no1 [Example 64, 3-(2,6-difluoro-3,5-dimethoxyphenyl)-7-(1,3-dimethyl-1H-pyrazol-4-yl)-1-((5-ethylisoxazol-3-yl)methyl)-3,4-dihydropyrido[4,3-d]pyrimidin-2(1H)-one] | >10 | >10 |

Further lines, results first:

| FGFR1/FGFR3 | FGFR4/FGFR3 | SMILES |
| --- | --- | --- |
| >3 | >5 | CCc1cnc(N2C(=O)N(c3c(F)c(OC)cc(OC)c3F)Cc3cnc(-c4cn(C)nc4C)cc32)cn1 [Example 106, 3-(2,6-difluoro-3,5-dimethoxyphenyl)-7-(1,3-dimethyl-1H-pyrazol-4-yl)-1-(5-ethylpyrazin-2-yl)-3,4-dihydropyrido[4,3-d]pyrimidin-2(1H)-one] |
| >5 | >5 | CCN1C(=O)N(c2c(F)c(OC)cc(OC)c2F)Cc2cnc(-c3ccc(C(=O)NC(C)C)nc3)cc21 [Example 178, 5-(3-(2,6-difluoro-3,5-dimethoxyphenyl)-1-ethyl-2-oxo-1,2,3,4-tetrahydropyrido[4,3-d]pyrimidin-7-yl)-N-isopropylpicolinamide] |
| >5 | >3 | COc1cc(OC)c(F)c(N2Cc3cnc(-c4cnn(CCN5CCOCC5)c4)cc3C3(CC3)C2=O)c1F [Example 157, 2′-(2,6-difluoro-3,5-dimethoxyphenyl)-6′-(1-(2-morpholinoethyl)-1H-pyrazol-4-yl)-1′H-spiro[cyclopropane-1,4′-[2,7]naphthyridin]-3′(2′H)-one] |
| >5 | >10 | COc1cc(OC)c(F)c(N2Cc3cnc(-c4cn(C)nc4C)cc3N(Cc3csc(C)n3)C2=O)c1F [Example 95, 3-(2,6-difluoro-3,5-dimethoxyphenyl)-7-(1,3-dimethyl-1H-pyrazol-4-yl)-1-((2-methylthiazol-4-yl)methyl)-3,4-dihydropyrido[4,3-d]pyrimidin-2(1H)-one] |
| >5 | >5 | CCN1C(=O)N(c2c(F)c(OC)cc(OC)c2F)Cc2cnc(-c3ccc(N4CCOCC4)nc3)cc21 [Example 182, 3-(2,6-difluoro-3,5-dimethoxyphenyl)-1-ethyl-7-(6-morpholinopyridin-3-yl)-3,4-dihydropyrido[4,3-d]pyrimidin-2(1H)-one] |
| >5 | >5 | COc1cc(OC)c(F)c(N2Cc3cnc(-c4cn(C)nc4C)cc3N(c3cccc(F)c3)C2=O)c1F [Example 99, 3-(2,6-difluoro-3,5-dimethoxyphenyl)-7-(1,3-dimethyl-1H-pyrazol-4-yl)-1-(3-fluorophenyl)-3,4-dihydropyrido[4,3-d]pyrimidin-2(1H)-one] |
| >3 | >5 | COc1cc(OC)c(F)c(N2Cc3cnc(-c4cn(C)nc4C)cc3N(c3cc(F)cc(F)c3)C2=O)c1F [Example 103, 3-(2,6-difluoro-3,5-dimethoxyphenyl)-1-(3,5-difluorophenyl)-7-(1,3-dimethyl-1H-pyrazol-4-yl)-3,4-dihydropyrido[4,3-d]pyrimidin-2(1H)-one] |
| >3 | >10 | CCN1C(=O)N(c2c(F)c(OC)cc(OC)c2F)Cc2cnc(-c3ccc(C4(C#N)CC4)cc3)cc21 [Example 183, 1-(4-(3-(2,6-difluoro-3,5-dimethoxyphenyl)-1-ethyl-2-oxo-1,2,3,4-tetrahydropyrido[4,3-d]pyrimidin-7-yl)phenyl)cyclopropanecarbonitrile] |
| >5 | >10 | CCN1C(=O)N(c2c(F)c(OC)cc(OC)c2F)Cc2cnc(-c3ccc(C4(C#N)CCC4)cc3)cc21 [Example 181, 1-(4-(3-(2,6-difluoro-3,5-dimethoxyphenyl)-1-ethyl-2-oxo-1,2,3,4-tetrahydropyrido[4,3-d]pyrimidin-7-yl)phenyl)cyclobutanecarbonitrile] |
| >5 | >10 | COc1cc(OC)c(F)c(N2Cc3cnc(-c4cn(C)nc4C)cc3N(c3ccc(CC#N)cc3)C2=O)c1F [Example 97, 2-(4-(3-(2,6-difluoro-3,5-dimethoxyphenyl)-7-(1,3-dimethyl-1H-pyrazol-4-yl)-2-oxo-3,4-dihydropyrido[4,3-d]pyrimidin-1(2H)-yl)phenyl)acetonitrile] |
| >5 | >5 | COc1cc(OC)c(F)c(N2Cc3cnc(-c4csc(N(C)C)n4)cc3C3(CC3)C2=O)c1F [Example 160, 2′-(2,6-difluoro-3,5-dimethoxyphenyl)-6′-(2-(dimethylamino)thiazol-4-yl)-1′H-spiro[cyclopropane-1,4′-[2,7]naphthyridin]-3′(2′H)-one] |
